US20180273528A1 (LES LABORATOIRES SERVIER, priority 2015, published 2018)

Tests used:
[1] = biological target: T1, His-TEV-DYRK1A Kinase domain (aa127-485) (Homo sapiens, UniProt Q13627); assay: Kinase ADP assay (ADP Hunter), DYRK1A kinase domain; assay type: biochemical; conditions: 20 μM ATP
T1 construct: His-TEV-DYRK1A Kinase domain (aa127-485); His tag (N); TEV protease cleavage site (N)
How it was run: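 Readout is ADP Hunter fluorescence at 590 nm, developed 20 min at 30 °C after the kinase step. That step ran 10 min at 30 °C in Hepes pH 7.4 (10 mM MgCl2, 1 mM EGTA, 0.02% Tween20) containing 20 μM ATP, 40 μM peptide and 20 nM enzyme plus compound.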

[2] = biological target: T2, DYRK1B (Homo sapiens, UniProt Q9Y463); assay: Kinase TR-FRET assay, DYRK1B; assay type: biochemical; conditions: full-length human kinase, 10 μM ATP
T2 construct: full-length human kinases from Carna Biosciences; purchased Carna Biosciences 04-131
T2 sequence (Q9Y463 whole entry): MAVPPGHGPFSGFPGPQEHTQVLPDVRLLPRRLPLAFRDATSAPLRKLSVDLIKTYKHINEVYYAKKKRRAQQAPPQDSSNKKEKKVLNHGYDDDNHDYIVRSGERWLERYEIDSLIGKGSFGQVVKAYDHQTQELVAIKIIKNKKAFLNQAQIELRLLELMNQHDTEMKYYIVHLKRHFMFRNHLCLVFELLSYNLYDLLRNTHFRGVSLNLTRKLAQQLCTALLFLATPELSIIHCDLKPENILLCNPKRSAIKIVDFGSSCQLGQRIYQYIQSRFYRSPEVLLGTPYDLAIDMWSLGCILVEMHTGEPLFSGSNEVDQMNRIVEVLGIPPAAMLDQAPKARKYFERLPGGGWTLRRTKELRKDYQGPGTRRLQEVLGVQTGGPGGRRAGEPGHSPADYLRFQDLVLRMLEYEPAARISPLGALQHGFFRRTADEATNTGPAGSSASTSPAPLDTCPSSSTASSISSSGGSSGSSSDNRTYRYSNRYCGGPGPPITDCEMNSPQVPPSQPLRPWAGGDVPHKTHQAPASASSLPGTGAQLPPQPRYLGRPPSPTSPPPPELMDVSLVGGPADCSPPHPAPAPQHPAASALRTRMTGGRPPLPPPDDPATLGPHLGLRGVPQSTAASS
How it was run: (§1)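 Compounds tested at 0.1 nM to 30 μM in reaction buffer; reaction stopped with 10 mM EDTA. Phosphorylated MBP detected with 1 nM Europium-labelled anti-phospho-Thr232 antibody by TR-FRET.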

[3] = biological target: T3, CLK1 (Homo sapiens, UniProt P49759); assay: Kinase TR-FRET assay, CLK1; assay type: biochemical; conditions: full-length human kinase, 10 μM ATP
T3 construct: full-length human kinases from Carna Biosciences; purchased Carna Biosciences 04-126
T3 sequence (P49759 1-526 isoform P49759-3): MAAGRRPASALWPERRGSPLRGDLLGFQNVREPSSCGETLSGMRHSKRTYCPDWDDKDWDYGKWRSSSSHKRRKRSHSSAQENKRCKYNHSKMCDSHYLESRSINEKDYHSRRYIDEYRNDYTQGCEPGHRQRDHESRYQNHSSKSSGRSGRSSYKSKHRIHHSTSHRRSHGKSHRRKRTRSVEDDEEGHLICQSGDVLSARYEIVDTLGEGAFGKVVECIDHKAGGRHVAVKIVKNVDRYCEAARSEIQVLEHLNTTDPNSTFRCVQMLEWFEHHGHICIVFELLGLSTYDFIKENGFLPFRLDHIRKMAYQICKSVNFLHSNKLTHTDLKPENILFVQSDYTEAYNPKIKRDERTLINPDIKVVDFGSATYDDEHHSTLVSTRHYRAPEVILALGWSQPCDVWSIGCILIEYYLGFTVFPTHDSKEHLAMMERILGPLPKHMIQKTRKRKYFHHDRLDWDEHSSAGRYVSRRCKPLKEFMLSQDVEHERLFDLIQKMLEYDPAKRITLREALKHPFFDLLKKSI
How it was run: as §1

[4] = biological target: T4, CDK9 (Homo sapiens, UniProt P50750); assay: Kinase TR-FRET assay, CDK9; assay type: biochemical; conditions: full-length human kinase, 10 μM ATP
T4 construct: full-length human kinases from Carna Biosciences; purchased Carna Biosciences 04-110
T4 sequence (P50750 whole entry): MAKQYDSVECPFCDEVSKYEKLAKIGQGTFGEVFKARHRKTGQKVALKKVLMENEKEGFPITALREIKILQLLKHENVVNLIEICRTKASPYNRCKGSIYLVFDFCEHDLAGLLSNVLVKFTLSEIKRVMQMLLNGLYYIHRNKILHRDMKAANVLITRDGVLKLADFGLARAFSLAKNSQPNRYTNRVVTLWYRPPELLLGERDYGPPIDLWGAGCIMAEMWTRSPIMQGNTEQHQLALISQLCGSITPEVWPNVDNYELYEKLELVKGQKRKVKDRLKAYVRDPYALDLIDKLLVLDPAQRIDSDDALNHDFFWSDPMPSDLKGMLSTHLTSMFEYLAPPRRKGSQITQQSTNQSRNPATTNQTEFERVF
T4 sequence (O60563 whole entry partner): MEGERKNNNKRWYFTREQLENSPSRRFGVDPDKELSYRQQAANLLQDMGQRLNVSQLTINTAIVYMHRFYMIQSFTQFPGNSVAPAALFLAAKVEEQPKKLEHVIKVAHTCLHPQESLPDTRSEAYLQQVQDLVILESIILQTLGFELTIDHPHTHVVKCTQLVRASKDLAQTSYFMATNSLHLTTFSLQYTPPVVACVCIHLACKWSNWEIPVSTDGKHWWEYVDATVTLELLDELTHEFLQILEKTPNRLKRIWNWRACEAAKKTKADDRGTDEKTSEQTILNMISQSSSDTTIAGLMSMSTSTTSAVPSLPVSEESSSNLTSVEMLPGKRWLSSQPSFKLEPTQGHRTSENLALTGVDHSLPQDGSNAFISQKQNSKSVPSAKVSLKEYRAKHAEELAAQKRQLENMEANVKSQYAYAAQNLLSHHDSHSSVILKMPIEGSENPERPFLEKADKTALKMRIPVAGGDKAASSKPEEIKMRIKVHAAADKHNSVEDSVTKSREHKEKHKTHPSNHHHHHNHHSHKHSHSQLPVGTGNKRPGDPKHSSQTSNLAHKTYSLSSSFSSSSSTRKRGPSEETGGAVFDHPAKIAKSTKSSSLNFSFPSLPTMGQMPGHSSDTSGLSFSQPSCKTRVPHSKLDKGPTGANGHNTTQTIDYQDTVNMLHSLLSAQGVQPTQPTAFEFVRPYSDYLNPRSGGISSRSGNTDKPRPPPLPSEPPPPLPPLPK
How it was run: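 Full-length human CDK9 (0.9 ng/μl) incubated 100 min at room temperature with 10 μM ATP, 100 nM ULight-MBP peptide and compound (0.1 nM–30 μM) in 50 mM HEPES pH 7.4, 1 mM EGTA, 10 mM MgCl2, 2 mM DTT, 0.01% Tween20. Stopped with 10 mM EDTA, then 1 nM Eu-anti-phospho-Thr232 MBP antibody added for 1 h. TR-FRET read at 665/620 nm with 340 nm excitation.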

[5] = biological target: DYRK1A (Homo sapiens, UniProt Q13627); assay: Cellular DYRK1 autophosphorylation assay in U2-OS cells; assay type: cell-based; set-up: full-length, wild-type human DYRK1A (NM_001396) with an HA tag; expressed in transfected cells; host or cells: human U2-OS osteosarcoma cells, transient transfection of a pcDNA3.1 plasmid; conditions: U2-OS cells transfected with HA-tagged human DYRK1A, 5 hours exposure; read-out: IC50 (μM) P-Ser520-Dyrk1A -Cell assay
How it was run: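 IC50 derived from dose-response curves of phospho-Ser520-DYRK1A (blots normalised to total DYRK1A), quantified by either immunoblotting with chemiluminescence or Mesoscale electrochemiluminescent ELISA. Compounds applied to U2-OS cells across several concentrations for 5 hours.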

| IC50 [1] [µM] | IC50 [2] [µM] | IC50 [3] [µM] | IC50 [4] [µM] | IC50 [5] [µM] | Structure (SMILES) |
| --- | --- | --- | --- | --- | --- |
| 0.012 | 0.006 | 0.019 | > 3 | 0.073 | Cc1nc2ccc(-c3cc(N)nc(N)c3)nc2n1C[C@@H](C)Oc1ccccc1 (single isomer, unassigned) [Example 106] |
| 0.007 | 0.006 | 0.021 | 2.15 | 0.09 | Cc1nc2ccc(-c3cc(N)nc(N)c3)nc2n1C1CC1 [Example 9, 4-(3-cyclopropyl-2-methyl-3H-imidazo[4,5-b]pyridin-5-yl)pyridine-2,6-diamine] |
| 0.008 | 0.01 | 0.053 | 2.94 | 0.045 | Cc1nc2ccc(-c3cc(N)nc(N)c3)nc2n1Cc1ccoc1 [Example 42, 4-[3-(furan-3-ylmethyl)-2-methyl-3H-imidazo[4,5-b]pyridin-5-yl]pyridine-2,6-diamine] |
| 0.006 | 0.006 | 0.016 | 1.41 | 0.047 | Cc1nc2ccc(-c3cc(N)nc(N)c3)nc2n1CCCC(F)(F)F [Example 71, 4-[2-methyl-3-(4,4,4-trifluorobutyl)-3H-imidazo[4,5-b]pyridin-5-yl]pyridine-2,6-diamine] |
| 0.006 | 0.007 | 0.016 | 1.26 | 0.006 | Cc1nc2ccc(-c3cc(N)nc(N)c3)nc2n1C1CC(F)(F)C1 [Example 101, 4-[3-(3,3-difluorocyclobutyl)-2-methyl-3H-imidazo[4,5-b]pyridin-5-yl]pyridine-2,6-diamine] |
| 0.006 | 0.005 | 0.015 | 0.666 | 0.014 | Cc1nc2ccc(-c3cc(N)nc(N)c3)nc2n1C1CC(F)C1 (centres unmarked) [Example 103, 4-[3-(3-fluorocyclobutyl)-2-methyl-3H-imidazo[4,5-b]pyridin-5-yl]pyridine-2,6-diamine] |
| 0.007 | 0.002 | 0.023 | 3.39 | 0.02 | CCn1c(C)nc2ccc(-c3cc(N)nc(N)c3)nc21 [Example 154, 4-(3-ethyl-2-methyl-3H-imidazo[4,5-b]pyridin-5-yl)pyridine-2,6-diamine] |
